One molecule from patent publication US9434735B2, “Amorphous form of 4-((4-(cyclopentyloxy)-5-(2-methylbenzo[d]oxazol-6-yl)-7h-pyrrolo[2,3-d]pyrimidin-2-yl)amino)-3-methoxy-n-methylbenzamide, compositions thereof and methods of their use” (Signal Pharmaceuticals, LLC, priority 2014, dated 2016) can be followed below.

Common to all, as to format: physicochemical
A short description of data set [1]: Dissolution of amorphous form in reconstitution formulations.
The nature of data set [2]: Solubility of spray-dried amorphous form in ethanol. Conditions: amorphous form obtained by spray-drying. As to the method: An amorphous form of Compound 1 was obtained from a spray-drying process of Compound 1 as depicted in FIG. 5. The spray-drying process comprised: (1) mixing Compound 1 with methanol at 25° C. to yield a suspension; (2) heating to 121° C.; (3) spray-drying under the conditions in Table 1 or Table 2 to yield an amorphous solid form; and (4) collecting the resulting solids. Alternatively, the spray drying process comprised: (1) mixing Compound 1 with acetone to yield a solution; (2) spray-drying under the conditions in Table 3 to yield an amorphous solid form; and (3) collecting the resulting solids.

Data set [3] can be described thus: Stability study of the amorphous form (HPLC purity, XRPD). As to conditions: over three months; HPLC purity (FIG. 6), XRPD (FIG. 7). As to the method:
FIG. 6 depicts a stability study of the amorphous form based on its HPLC purity over 3 months. FIG. 7 depicts a stability study of the amorphous form based on its XRPD over 3 months. Solid samples were analyzed by XRPD. XRPD analysis was conducted on a PANalytical Empyrean or a Thermo ARL X'TRA X-ray powder diffractometer using Cu Kα radiation at 1.54 Å.

As to `CNC(=O)c1ccc(Nc2nc(OC3CCCC3)c3c(-c4ccc5nc(C)oc5c4)c[nH]c3n2)c(OC)c1` [amorphous Compound 1, 4-((4-(cyclopentyloxy)-5-(2-methylbenzo[d]oxazol-6-yl)-7H-pyrrolo[2,3-d]pyrimidin-2-yl)amino)-3-methoxy-N-methylbenzamide], the “Dissolution Time” value in data set [1] (17 mg amorphous Compound 1, 0.105 g EtOH, 0.656 g PEG-300, 0.239 g Saline) turned out to be 1 min; in data set [1] (#1 4.6 mL EtOH added to 700 mg amorphous Compound 1, #2 26.3 mL (25.1:1.2) PEG-300:Ethanol, #3 10.3 mL Saline) it was 1 min; in data set [1] (#1 PEG-300/EtOH, #2 Saline), 9 min. The Solubility in ethanol result in data set [2] is “readily soluble”. Moreover, the “Stability (HPLC purity and XRPD)” value in data set [3] is “chemically and physically stable”.
